In patent US11339151B2, “Aliphatic acid amide derivative” (Sumitomo Dainippon Pharma Co., Ltd., priority 2019, dated 2022):

Experiments:
human 5-HT7 receptor [1] = target: T1, human 5-HT7 receptor (Homo sapiens (Human), UniProt P34969); experiment: Test 1: binding activity for human 5-HT7 receptor ([3H]SB-269970, CHO cell membrane fraction); conditions: [3H]SB-269970, room temperature 60 minutes
Protocol: (§1) Ki value was evaluated from dissociation constant which was calculated from saturated binding tests, and a substrate concentration, and it was used as an index for binding affinity.

human D2 receptor = human D2 receptor (Homo sapiens (Human), UniProt P14416); experiment: Test 1: binding activity for human D2 receptor ([3H]Spiperone, CHO cell membrane fraction); conditions: [3H]Spiperone, room temperature 60 minutes
Protocol: as §1

human 5-HT7 receptor [2] = target: T1, human 5-HT7 receptor; experiment: Test 2: antagonist activity for human 5-HT7 receptor (aequorin luminescence, CHO-K1 cells); assay type: cell-based; conditions: Gα16
Protocol: Test 2: Evaluation of Antagonist Activity for Human 5-HT2A Receptor and Human 5-HT7 Receptor
Aequorin, Gα 16 protein, and each receptor were transiently expressed in CHO-K1 cells (Chinese hamster ovary). The cells were cultivated in a CO2 incubator at 37° C. overnight, seeded into a 384-well plate, and stood at room temperature for 2 hours. Each compound dissolved in DMSO was added thereto, and changes in luminescence were measured by FDSS/μCELL drug discovery screening support system (Hamamatsu Photonics K.K.). As for antagonist activity, inhibitory activity of each compound was calculated by setting the luminescence level of wells to which 10 μmol/L endogenous ligand was added as 100%.

[3] = Test 3-1: metabolic stability test in human hepatic microsome; assay type: in vitro ADME; conditions: microsome 0.1 mg/mL, test compound 0.1 μmol/L, 37° C., 30 minutes
Protocol: Test 3-1: Metabolic Stability Test in Human Hepatic Microsome
The metabolic stability of the present compound in human hepatic microsome was evaluated as mentioned below. Human hepatic microsome was obtained from Xenontech. Human hepatic microsome, NADPH, and each test compound were mixed in 25 mmol/L phosphate buffer solution (pH 7.4) to reach the following concentrations as shown below, and the mixture was incubated at 37° C. for 30 minutes. • Human hepatic microsome: 0.1 mg/mL • NADPH: 3.2 mmol/L • Test compound: 0.1 μmol/L
The residual ratio of test compound in each sample after 30 minutes was measured by LC-MS, and the metabolic stability in human hepatic microsome was calculated from the following formula. Metabolic stability in human hepatic microsome (mL/min/mg protein)=−LN (residual ratio)/30/0.1

hERG channel = hERG channel (Homo sapiens (Human), UniProt Q12809); experiment: Test 5: inhibitory activity for hERG channel (whole cell patch clamp, hERG-CHO cells); assay type: cell-based; conditions: hERG-CHO cells, auto patch clamp
Protocol: Test 5: Evaluation of Inhibitory Activity for hERG Channel
Inhibitory activity of the present compound for hERG channel was measured by whole cell patch clamp method with an auto patch clamp system using CHO cells in which hERG channel involved in human rapidly activating delayed rectifier potassium current (IKr) was forcibly expressed.
hERG-CHO cells purchased from ChanTest Cop. were cultured in a CO2 incubator at 37° C., and dissociated from a flask with trypsin shortly before the measurement of hERG current to prepare a cell suspension.
The cell suspension, the extracellular fluid, the intracellular fluid, and the measurement plate were set in an auto patch clamp system, and hERG current was measured by whole cell patch clamp method. […] Each pulse interval was 15 seconds. The data analysis was carried out with Qube Assay Software (Sophion Sophion). The test was carried out by applying incrementally 4 concentrations of each test compound, and the average of the maximum peak tail currents which were obtained from the last 3 stimulations in each concentration was determined as the evaluated data.

T1 sequence (P34969 whole entry): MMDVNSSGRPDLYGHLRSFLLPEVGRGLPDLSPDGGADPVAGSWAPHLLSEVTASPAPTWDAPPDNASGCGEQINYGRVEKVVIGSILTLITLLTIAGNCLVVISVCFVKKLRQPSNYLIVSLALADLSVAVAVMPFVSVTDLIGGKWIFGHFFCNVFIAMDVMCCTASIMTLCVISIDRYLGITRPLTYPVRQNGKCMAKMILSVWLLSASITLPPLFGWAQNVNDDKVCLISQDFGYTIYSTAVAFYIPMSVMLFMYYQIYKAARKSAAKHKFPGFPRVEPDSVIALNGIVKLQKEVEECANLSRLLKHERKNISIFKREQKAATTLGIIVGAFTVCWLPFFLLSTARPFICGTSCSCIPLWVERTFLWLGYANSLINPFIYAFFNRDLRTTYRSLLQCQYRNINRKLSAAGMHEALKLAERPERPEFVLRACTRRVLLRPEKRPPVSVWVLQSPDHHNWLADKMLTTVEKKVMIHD
Chain of human D2 receptor (P14416 whole entry): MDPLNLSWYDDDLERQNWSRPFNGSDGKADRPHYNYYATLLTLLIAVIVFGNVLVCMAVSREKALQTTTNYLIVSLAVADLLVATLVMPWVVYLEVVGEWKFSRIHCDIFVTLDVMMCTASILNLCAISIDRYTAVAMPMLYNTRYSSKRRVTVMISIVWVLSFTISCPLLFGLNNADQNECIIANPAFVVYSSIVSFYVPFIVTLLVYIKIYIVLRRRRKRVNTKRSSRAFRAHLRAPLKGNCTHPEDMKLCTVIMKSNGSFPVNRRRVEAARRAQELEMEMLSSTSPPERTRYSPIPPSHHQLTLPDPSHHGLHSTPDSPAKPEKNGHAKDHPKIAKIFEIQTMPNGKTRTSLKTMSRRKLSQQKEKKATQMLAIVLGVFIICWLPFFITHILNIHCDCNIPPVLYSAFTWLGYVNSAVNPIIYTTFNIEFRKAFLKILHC
Chain of hERG channel (Q12809 whole entry): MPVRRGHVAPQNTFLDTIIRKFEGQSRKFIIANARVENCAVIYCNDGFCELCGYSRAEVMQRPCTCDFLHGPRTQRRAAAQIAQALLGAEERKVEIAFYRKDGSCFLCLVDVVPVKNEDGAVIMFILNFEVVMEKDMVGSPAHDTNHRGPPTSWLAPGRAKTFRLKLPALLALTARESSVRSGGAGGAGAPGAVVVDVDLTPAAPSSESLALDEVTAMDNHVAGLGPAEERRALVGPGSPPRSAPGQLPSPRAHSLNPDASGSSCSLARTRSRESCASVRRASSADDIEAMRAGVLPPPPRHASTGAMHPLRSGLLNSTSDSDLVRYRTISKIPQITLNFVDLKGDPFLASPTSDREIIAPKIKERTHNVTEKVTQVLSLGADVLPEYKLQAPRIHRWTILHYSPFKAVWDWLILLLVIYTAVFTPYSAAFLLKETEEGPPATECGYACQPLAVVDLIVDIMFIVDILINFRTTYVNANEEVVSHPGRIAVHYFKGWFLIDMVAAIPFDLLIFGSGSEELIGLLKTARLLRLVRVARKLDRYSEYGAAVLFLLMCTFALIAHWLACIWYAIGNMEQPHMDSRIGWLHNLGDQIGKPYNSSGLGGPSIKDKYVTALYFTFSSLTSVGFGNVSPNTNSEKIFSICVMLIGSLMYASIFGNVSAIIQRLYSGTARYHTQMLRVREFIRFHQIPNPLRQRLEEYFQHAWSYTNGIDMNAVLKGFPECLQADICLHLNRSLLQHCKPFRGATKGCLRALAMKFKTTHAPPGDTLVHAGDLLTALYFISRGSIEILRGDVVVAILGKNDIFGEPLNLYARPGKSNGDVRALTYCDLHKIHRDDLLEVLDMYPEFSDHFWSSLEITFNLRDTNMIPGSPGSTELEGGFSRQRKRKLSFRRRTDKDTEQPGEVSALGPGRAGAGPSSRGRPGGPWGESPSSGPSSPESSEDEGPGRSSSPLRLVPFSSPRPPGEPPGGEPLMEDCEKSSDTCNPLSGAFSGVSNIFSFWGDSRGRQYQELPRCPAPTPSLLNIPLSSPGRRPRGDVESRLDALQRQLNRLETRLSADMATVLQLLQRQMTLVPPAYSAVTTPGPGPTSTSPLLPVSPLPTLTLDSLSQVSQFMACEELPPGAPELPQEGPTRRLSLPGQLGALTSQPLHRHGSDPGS

Structure (SMILES) | Ki (human 5-HT7 receptor [1]) [µM] | Ki (human D2 receptor) [µM] | IC50 (human 5-HT7 receptor [2]) [µM] | Metabolic stability in human hepatic microsome [3] [mL/min/mg protein] | IC50 (hERG channel) [µM]
CCN(CCN1CCC(c2noc3cc(F)ccc23)CC1)C(=O)C1CNCC1O (stereo not drawn) [Example 66] | 0.0054 | 0.212 | 0.07 | <0.05 | > 10
CCN(CCN1CCC(c2noc3cc(F)ccc23)CC1)C(=O)C(O)C(C)C (stereo not drawn) [Example 8] | 0.0062 | 0.294 | 0.008 | 0.108 | 4.2
CCN(CCN1CCC(c2noc3cc(F)ccc23)CC1)C(=O)C(C)(C)CO [Example 7] | 0.001 | 0.079 | 0.011 | 0.08 | 3.5
CCN(CCN1CCC(c2noc3ccc(C)cc23)CC1)C(=O)[C@H](C)O [Example 14] | 0.0146 | > 1 | 0.082 |  | 9.6
CCN(CCN1CCC(c2noc3cc(F)ccc23)CC1)C(=O)C(C)(C)O [Example 6] | 0.0057 | 0.278 | 0.066 | 0.053 | 1.5
CCN(CCN1CCC(c2c[nH]c3ccccc23)CC1)C(=O)C(C)O (stereo not drawn) [Example 22, N-Ethyl-2-hydroxy-N-{2-[4-(1H-indol-3-yl)piperidin-1-yl]ethyl}propanamide] | 0.0058 | 0.528 | 0.04 | <0.05 | > 10
CCN(CCN1CCC(c2noc3cc(F)ccc23)CC1)C(=O)C(O)CCC(=O)OC (stereo not drawn) [Example 5] | 0.0024 | 0.116 | 0.066 | 0.186 | 1.1
CCN(CCN1CCC(c2noc3cc(F)ccc23)CC1)C(=O)[C@H]1CC[C@@H](O)CC1 [Example 44] | 0.0032 | < 0.1 | 0.077 | <0.05 | 
CCN(CCN1CCC(n2ncc3cc(F)ccc32)CC1)C(=O)[C@H](C)O [Example 21, (2S)—N-Ethyl-N-{2-[4-(5-fluoro-1H-indazol-1-yl)piperidin-1-yl]ethyl}-2-hydroxypropanamide] |  | > 1 |  | <0.05 | 15.3
CCN(CCCN1CCC(c2noc3cc(F)ccc23)CC1)S(=O)(=O)CCO [Example 53] | 0.0014 | < 0.1 | 0.044 | <0.05 | 7.2
CCN(CCN1CCC(c2c[nH]c3ccccc23)CC1)C(=O)[C@H](C)O [Example 23, (2S)—N-Ethyl-2-hydroxy-N-{2-[4-(1H-indol-3-yl)piperidin-1-yl]ethyl}propanamide] | 0.0079 | > 1 | 0.068 | <0.05 | > 10
CC[C@@H](O)C(=O)N(CC)CCN1CCC(c2noc3cc(F)ccc23)CC1 [Example 29] | 0.0026 | 0.146 | 0.099 | <0.05 | 0.9
CCN(CCN1CCC(n2ncc3cc(F)ccc32)CC1)S(=O)(=O)C(C)CO (stereo not drawn) [Example 64] | 0.0024 | 0.348 | 0.101 | 0.097 | > 10
CCN(CCCN1CCC(c2noc3ccccc23)CC1)S(=O)(=O)C(C)CO (stereo not drawn) [Example 54] | 0.0026 | 0.116 | 0.001 | <0.05 | 
CCN(CCN1CCC(c2noc3cc(F)ccc23)CC1)C(=O)[C@@H](C)O [Example 1, (2R)—N-Ethyl-N-{2-[4-(6-fluoro-1,2-benzoisoxazol-3-yl)piperidin-1-yl]ethyl}-2-hydroxypropanamide] |  |  |  | <0.05 | 4.8
C#CC(O)C(=O)N(CC)CCN1CCC(c2noc3cc(F)ccc23)CC1 (stereo not drawn) [Example 28] | 0.01 | < 0.1 | 0.08 |  | 
CCN(CCN1CCC(c2noc3cc(F)ccc23)CC1)C(=O)C1CC(O)C1 (stereo not drawn) [Example 46] | 0.0042 | 0.075 | 0.083 | <0.05 | 

Structure (SMILES) | Ki (human 5-HT7 receptor [1]) [µM] | Ki (human D2 receptor) [µM] | IC50 (human 5-HT7 receptor [2]) [µM] | Metabolic stability in human hepatic microsome [3] [mL/min/mg protein] | IC50 (hERG channel) [µM]
CCN(CCN1CCC(c2noc3cc(F)ccc23)CC1)C(=O)CO [Example 12] | 0.0069 |  | 0.082 | 0.089 | 2.2
CCN(CCN1CCC(c2noc3cc(F)ccc23)CC1)C(=O)C1CN(C(C)=O)CC1O (stereo not drawn) [Example 73] | 0.0144 | 0.205 | 0.081 |  | 
CCN(CCN1CCC(n2ncc3cc(F)ccc32)CC1)C(=O)[C@@H](C)O [Example 3, (2R)—N-Ethyl-N-{2-[4-(5-fluoro-1H-indazol-1-yl)piperidin-1-yl]ethyl}-2-hydroxypropanamide] |  | > 1 |  | <0.05 | > 10
CCN(CCN1CCC(c2noc3cc(F)ccc23)CC1)C(=O)C1CCC(O)CC1 (stereo not drawn) [Example 9] | 0.0016 | < 0.1 | 0.008 | <0.05 | 
CCN(CCN1CCC(c2noc3cc(F)ccc23)CC1)C(=O)C(C)O (stereo not drawn) [Example 4] |  |  |  | <0.05 | 7.1
CCN(CCN1CCC(c2noc3cc(F)ccc23)CC1)C(=O)C(F)(F)CO [Example 36] | 0.001 | 0.08 | 0.082 | <0.05 | 
CCN(CCCN1CCN(c2noc3cc(F)ccc23)CC1)S(=O)(=O)C(C)CO (stereo not drawn) [Example 55] | 0.0001 | 0.078 | 0.003 | 0.059 | 
CCN(CCN1CCC(c2c[nH]c3cc(F)ccc23)CC1)C(=O)[C@H](C)O [Example 20, (2S)—N-Ethyl-N-{2-[4-(6-fluoro-1H-indol-3-yl)piperidin-1-yl]ethyl}-2-hydroxypropanamide] | 0.0015 | 0.046 | 0.048 | <0.05 | 
CCN(CCN1CCC(c2noc3cc(F)ccc23)CC1)C(=O)[C@H]1NCC[C@H]1O [Example 68] | 0.0485 | 0.91 | 0.091 | <0.05 | 
CCN(CCN1CCC(c2noc3cc(Cl)ccc23)CC1)S(=O)(=O)CCO [Example 60] | 0.0243 | > 1 | 0.072 |  | 
CCN(CCN1CCC(c2noc3cc(F)ccc23)CC1)C(=O)[C@H]1CC[C@H](O)CC1 [Example 43] | 0.0043 | < 0.1 | 0.082 | <0.05 | 
CCN(CCN1CCC(c2noc3cc(Cl)ccc23)CC1)C(=O)[C@H](C)O [Example 15] | 0.0264 | > 1 | 0.086 |  | 
[2H]C(C)(O)C(=O)N(CC)CCN1CCC(c2noc3cc(F)ccc23)CC1 (stereo not drawn) [Example 40] |  |  |  | <0.05 | 9.9
CCCN(CCN1CCC(c2noc3cc(F)ccc23)CC1)C(=O)C(C)O (stereo not drawn) [Example 39] | 0.0007 | < 0.1 | 0.009 | <0.05 | 
CC(O)C(=O)N(CC#N)CCN1CCC(c2noc3cc(F)ccc23)CC1 (stereo not drawn) [Example 32] | 0.11 | > 10 | 0.073 |  | 
CCN(CCN1CCC(c2noc3cc(F)ccc23)CC1)C(=O)C(O)CN (stereo not drawn) [Example 65, 3-Amino-N-ethyl-N-{2-[4-(6-fluoro-1,2-benzoisoxazol-3-yl)piperidin-1-yl]ethyl}-2-hydroxypropanamide] | 0.0076 | 0.195 | 0.081 | <0.05 | 
